Laboratory results reported in ChEMBL document CHEMBL1201862, “PubChem BioAssay data set” (2004).
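Results reflect a 48-hour exposure of cells in 96-well plates to compound at five concentrations. The concentration for 50% growth inhibition is given as GI50.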 Activity calls are given as the source filed them. No stated cut-off is given here; in the data, active = GI50 up to about 1.1 µM and inactive = higher.

Assays:
Experiment in all cases: inhibition of tumour cell growth, NCI panel, 48 h
HCT-116 = tested on: HCT-116
SK-MEL-2 = tested on: SK-MEL-2
EKVX = tested on: EKVX
Malme-3M = tested on: Malme-3M
SK-MEL-28 = tested on: SK-MEL-28
A549 = tested on: A549
MDA-MB-231 = tested on: MDA-MB-231
SF-539 = tested on: SF-539
MCF7 = tested on: MCF7
UACC-62 = tested on: UACC-62
786-0 = tested on: 786-0
MDA-N = tested on: MDA-N
NCI/ADR-RES = tested on: NCI/ADR-RES
M14 = tested on: M14
CAKI-1 = tested on: CAKI-1
SR = tested on: SR
LOX IMVI = tested on: LOX IMVI
T47D = tested on: T47D
OVCAR-8 = tested on: OVCAR-8
UO-31 = tested on: UO-31

Measured: GI50

COc1cc(/C=C2/C[C@H]3[C@@H]4CC=C5C[C@@H](O)CC[C@]5(C)[C@H]4CC[C@]3(C)NC2=O)cc(OC)c1OC
inactive: HCT-116 22.1 µM | SK-MEL-2 22 µM | EKVX 15.1 µM | Malme-3M 13.3 µM | SK-MEL-28 29.2 µM | A549 15 µM | MDA-MB-231 20.1 µM | SF-539 30.7 µM | MCF7 11.8 µM | UACC-62 16.3 µM | 786-0 17.7 µM | MDA-N 23 µM | NCI/ADR-RES 15.8 µM | M14 30.5 µM | CAKI-1 11.9 µM | SR 39.8 µM | LOX IMVI 20 µM | T47D 24.2 µM | OVCAR-8 18.9 µM | UO-31 9.68 µM

NN/C(=N\S(=O)(=O)c1cc2ccccc2o1)Nc1ccc(Cl)cc1
inactive: HCT-116 > 100 µM | SK-MEL-2 > 100 µM | EKVX 91.2 µM | Malme-3M > 100 µM | SK-MEL-28 > 100 µM | A549 > 100 µM | MDA-MB-231 67.9 µM | SF-539 > 100 µM | MCF7 > 100 µM | UACC-62 > 100 µM | 786-0 44 µM | MDA-N > 100 µM | NCI/ADR-RES > 100 µM | M14 > 100 µM | CAKI-1 > 100 µM | SR > 100 µM | LOX IMVI > 100 µM | T47D 28.2 µM | OVCAR-8 51.1 µM | UO-31 > 100 µM

N#Cc1c(O)c(/N=N/c2ccc(Cl)cc2)c(=O)n2c1[nH]c1ccccc12
inactive: HCT-116 37.9 µM | SK-MEL-2 45.8 µM | EKVX > 100 µM | Malme-3M 40.6 µM | SK-MEL-28 45.2 µM | A549 44.9 µM | MDA-MB-231 29.3 µM | SF-539 53.8 µM | MCF7 43.5 µM | UACC-62 29.7 µM | 786-0 48.6 µM | MDA-N 38.7 µM | NCI/ADR-RES 44 µM | M14 36 µM | CAKI-1 78.3 µM | SR 29.9 µM | LOX IMVI > 100 µM | T47D 27.1 µM | OVCAR-8 37.8 µM | UO-31 49.9 µM

NNC(=O)c1c(Cl)c(Cl)c(Cl)c(Cl)c1-c1nc2ccccc2[nH]1
inactive: HCT-116 13.2 µM | SK-MEL-2 6.41 µM | EKVX 12.4 µM | Malme-3M 14.3 µM | SK-MEL-28 15.8 µM | A549 10 µM | MDA-MB-231 21.3 µM | SF-539 20.4 µM | MCF7 2.96 µM | UACC-62 10.4 µM | 786-0 18.5 µM | MDA-N 2.94 µM | NCI/ADR-RES 6.34 µM | M14 9.55 µM | CAKI-1 13.2 µM | SR 2.63 µM | LOX IMVI 12.7 µM | T47D 2.47 µM | OVCAR-8 29 µM | UO-31 19.4 µM

O=C(Nc1ccc(Cl)cc1)c1cc(S(=O)(=O)NC2=Nc3ccc(Cl)cc3C(c3ccccc3)N2)c(SSc2cc(Cl)c(C(=O)Nc3ccc(Cl)cc3)cc2S(=O)(=O)NC2=Nc3ccc(Cl)cc3C(c3ccccc3)N2)cc1Cl (stereo not given)
inactive: HCT-116 > 100 µM | SK-MEL-2 > 100 µM | EKVX > 100 µM | Malme-3M > 100 µM | SK-MEL-28 > 100 µM | A549 > 100 µM | MDA-MB-231 24.3 µM | SF-539 > 100 µM | MCF7 > 100 µM | UACC-62 > 90.4 µM | 786-0 > 100 µM | MDA-N > 100 µM | NCI/ADR-RES > 100 µM | M14 46.1 µM | CAKI-1 > 100 µM | SR 16.5 µM | LOX IMVI > 100 µM | T47D > 100 µM | OVCAR-8 > 100 µM | UO-31 > 100 µM

OC1(c2ccc3ccccc3c2)c2ccc3ccccc3c2C2=NCCN21 (stereo not given)
inactive: HCT-116 34.6 µM | SK-MEL-2 > 100 µM | EKVX > 100 µM | Malme-3M > 100 µM | SK-MEL-28 > 100 µM | A549 46.5 µM | MDA-MB-231 76.4 µM | SF-539 19.5 µM | MCF7 48.2 µM | UACC-62 > 100 µM | 786-0 24.8 µM | MDA-N > 100 µM | NCI/ADR-RES 37.1 µM | M14 > 100 µM | CAKI-1 > 100 µM | SR 36.8 µM | LOX IMVI 91.8 µM | T47D > 100 µM | OVCAR-8 23.3 µM | UO-31 40.9 µM

Cc1ccc2c3c1O[C@H]1c4nc5ccccc5cc4C[C@@]4(O)[C@@H](C2)N(CC2CC2)CC[C@]314
inactive: HCT-116 4.54 µM | SK-MEL-2 18.5 µM | EKVX 15.1 µM | Malme-3M 14.5 µM | SK-MEL-28 19.6 µM | A549 6.4 µM | MDA-MB-231 11.2 µM | SF-539 4.68 µM | MCF7 10.4 µM | UACC-62 9.82 µM | 786-0 10.8 µM | MDA-N 11.8 µM | NCI/ADR-RES 6.44 µM | M14 12.5 µM | CAKI-1 13.2 µM | SR 3.86 µM | LOX IMVI 4.47 µM | T47D 15.8 µM | OVCAR-8 10.7 µM | UO-31 10.4 µM

COc1cc(-c2cc(=O)c3cc4c(=O)cc(-c5cc(OC)c(OC)c(OC)c5)oc4cc3o2)cc(OC)c1OC
inactive: HCT-116 30.9 µM | SK-MEL-2 16.7 µM | EKVX > 100 µM | Malme-3M 43.2 µM | SK-MEL-28 > 100 µM | A549 88.9 µM | MDA-MB-231 > 39 µM | SF-539 58.3 µM | MCF7 > 100 µM | UACC-62 13.9 µM | 786-0 14.3 µM | MDA-N > 100 µM | NCI/ADR-RES 65.9 µM | M14 60.3 µM | CAKI-1 23.2 µM | SR > 100 µM | LOX IMVI 36.1 µM | T47D > 54.8 µM | OVCAR-8 27 µM | UO-31 > 100 µM

COc1cc2c(cc1OC)C1Cc3ccccc3CCN1CC2 (stereo not given)
inactive: HCT-116 39.1 µM | SK-MEL-2 > 100 µM | EKVX > 100 µM | Malme-3M > 100 µM | SK-MEL-28 > 100 µM | A549 > 100 µM | MDA-MB-231 > 100 µM | SF-539 > 100 µM | MCF7 > 100 µM | UACC-62 > 100 µM | 786-0 50 µM | MDA-N > 100 µM | NCI/ADR-RES > 100 µM | M14 > 100 µM | CAKI-1 > 100 µM | SR 92.9 µM | LOX IMVI > 100 µM | T47D > 100 µM | OVCAR-8 > 100 µM | UO-31 27.2 µM

C=[N+](CNC(=O)CNC(=O)C(Cc1ccccc1)NC(=O)OC(C)(C)C)C(=O)CNC(=O)C(Cc1ccccc1)NC(=O)OC(C)(C)C (stereo not given)
inactive: HCT-116 > 100 µM | SK-MEL-2 > 100 µM | EKVX > 100 µM | Malme-3M > 100 µM | SK-MEL-28 > 100 µM | A549 > 100 µM | MDA-MB-231 > 100 µM | SF-539 > 100 µM | MCF7 > 100 µM | UACC-62 > 100 µM | 786-0 > 100 µM | MDA-N > 100 µM | NCI/ADR-RES > 100 µM | M14 > 100 µM | CAKI-1 > 100 µM | SR > 100 µM | LOX IMVI > 100 µM | T47D > 100 µM | OVCAR-8 > 100 µM | UO-31 > 100 µM
